In PubChem BioAssay (NCI):
Several values for one entry are separate records, joined by “and”; a condition that tells them apart may be missing. Equal values may be shown once.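 How tested: cells in 96-well plates exposed to compound for 48 hours at five concentrations. The concentration for 50% growth inhibition is given as GI50. Definition used: TGI = concentration required for complete inhibition of growth.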

Assays:
Test in all cases: inhibition of tumour cell growth, NCI panel, 48 h
CAKI-1 renal = test system: CAKI-1 renal
ACHN renal = test system: ACHN renal
OVCAR-8 ovarian = test system: OVCAR-8 ovarian
COLO 205 colon = test system: COLO 205 colon
UACC-62 melanoma = test system: UACC-62 melanoma
RXF 393 renal = test system: RXF 393 renal
786-0 renal = test system: 786-0 renal
SK-MEL-28 melanoma = test system: SK-MEL-28 melanoma
NCI/ADR-RES ovarian = test system: NCI/ADR-RES ovarian
MCF7 breast = test system: MCF7 breast

| SMILES | TGI (CAKI-1 renal) [µM] | TGI (ACHN renal) | TGI (OVCAR-8 ovarian) [µM] | TGI (COLO 205 colon) [µM] | TGI (UACC-62 melanoma) | TGI (RXF 393 renal) | TGI (786-0 renal) | TGI (SK-MEL-28 melanoma) | TGI (NCI/ADR-RES ovarian) [µM] | TGI (MCF7 breast) [µM] | GI50 (CAKI-1 renal) [µM] | GI50 (ACHN renal) | GI50 (OVCAR-8 ovarian) [µM] | GI50 (MCF7 breast) [µM] | GI50 (COLO 205 colon) [µM] | GI50 (UACC-62 melanoma) [µM] | GI50 (RXF 393 renal) [µM] | GI50 (786-0 renal) [µM] | GI50 (NCI/ADR-RES ovarian) [µM] | GI50 (SK-MEL-28 melanoma) [µM] |
| --- | --- | --- | --- | --- | --- | --- | --- | --- | --- | --- | --- | --- | --- | --- | --- | --- | --- | --- | --- | --- |
| C#CCNC(=O)NCCCCC(NC(=O)OCc1ccccc1)C(=O)OCc1ccccc1 (stereo unspecified) | 97.3 | > 31.6 µM | > 100 | 32.8 | > 100 µM | > 100 µM | > 100 µM | > 100 µM |  |  |  |  |  |  |  |  |  |  |  |  |
| O=C(O)/C=C\C(=O)Nc1ccccn1 | > 100 | > 100 µM | > 100 | > 100 | > 100 µM | > 100 µM | > 100 µM | > 100 µM | > 100 |  |  |  |  |  |  |  |  |  |  |  |
| O=c1nc(-c2ccccc2)cc(CC(O)c2ccc(Cl)c(Cl)c2)[nH]1 (stereo unspecified) | > 100 | > 100 µM | > 100 | 31.7 | > 100 µM | > 100 µM | > 100 µM | > 100 µM |  |  |  |  |  |  |  |  |  |  |  |  |
| COC(=O)C1=C(CS(=O)c2ccc([N+](=O)[O-])cc2[N+](=O)[O-])C2C=CC1C2 (stereo unspecified) | 39.6 | 39.5 µM | 80.9 | 41.5 | 42.2 µM | 52.1 µM | 62.6 µM |  |  |  |  |  |  |  |  |  |  |  |  |  |
| CCc1cccc(C)c1N1C(=O)C(=O)C(c2nc3ccccc3o2)C(=O)C1=O | > 100 | > 100 µM | > 100 | > 100 | > 100 µM |  | > 100 µM | > 100 µM |  |  |  |  |  |  |  |  |  |  |  |  |
| N/C(=N\NS(=O)(=O)c1ccccc1)Oc1ccc(Br)cc1Br | > 100 | > 100 µM | > 100 | > 100 | > 100 µM | > 100 µM | > 100 µM | > 100 µM |  |  |  |  |  |  |  |  |  |  |  |  |
| CC1(c2cc3c(cc2Br)OCO3)SCCCS1 |  | > 100 µM | > 100 | > 100 | > 100 µM | 37.3 µM | > 100 µM | > 100 µM |  |  |  |  |  |  |  |  |  |  |  |  |
| CCc1ccccc1NC(=O)/C=C/c1ccccc1 | > 100 | > 100 µM | > 100 | > 100 | > 100 µM |  | > 100 µM | > 100 µM |  | > 100 |  |  |  |  |  |  |  |  |  |  |
| COC(=O)CCC12CCC(=O)C1[C@@H](C(=O)OC)C[C@H]2C(=O)OC (stereo partly specified) | > 100 | > 100 µM | > 100 | > 100 | > 100 µM | > 100 µM | > 100 µM |  |  |  |  |  |  |  |  |  |  |  |  |  |
| COc1ccc(C(=O)c2cc3c(N)c(C(=O)Nc4ccccc4)sc3nc2C)cc1 | > 100 | > 100 µM | > 100 | > 100 | > 100 µM | > 100 µM | > 100 µM |  | > 100 | > 100 | 0.656 | 1.56 µM | 3.71 | 0.373 | 1.42 | 0.952 | 0.485 | 4.73 | 0.816 |  |
| Cc1ccc(Oc2ccccc2N)cc1 |  |  | > 100 | 19.2 | > 100 µM | > 100 µM | 86.8 µM | 80.2 µM |  |  |  |  |  |  |  |  |  |  |  |  |
| C#CCNC(=S)N/N=C(\C)c1ccccn1 | > 33.8 | > 100 µM | > 100 | > 100 | 4.38 µM | 4.9 µM | > 100 µM | > 100 µM |  | > 100 | 0.396 | 0.313 µM | 0.284 | 0.0792 | 0.184 | 1.12 | 0.641 | 0.354 |  | 2.32 |
| C[Si](C)(C)C(CCCCSc1ccccc1)(Sc1ccccc1)Sc1ccccc1 | > 100 | > 100 µM | > 100 | > 100 | > 100 µM | > 100 µM | > 100 µM | > 100 µM |  |  |  |  |  |  |  |  |  |  |  |  |
| CCc1cccc(C)c1NC(=O)CCc1nnc2s/c(=C\c3cccc4ccccc34)c(=O)n12 | > 100 | > 100 µM | > 100 | > 100 | > 100 µM | > 100 µM | > 100 µM | > 100 µM |  |  |  |  |  |  |  |  |  |  |  |  |
| Cc1c(C(=O)/C=C/C=C/c2ccccc2)[n+](=O)c2ccccc2n1[O-] | > 100 | 60.8 µM | > 100 | > 100 | 30.2 µM |  | 52.7 µM | 54.6 µM |  |  |  |  |  |  |  |  |  |  |  |  |
| CC[C@@]1(OC(=O)CN)C(=O)OCc2c1cc1n(c2=O)Cc2c-1nc1cc3c(cc1c2CCl)OCO3 | 1.98 | 0.244 µM | 0.354 | 3.1 | 2.28 µM |  | > 33.8 µM | 20.5 µM | 0.0583 | 12.6 | < 0.01 | < 0.01 µM | < 0.0105 | < 0.01 | 0.761 | < 0.01 |  | 0.0102 | < 0.01 | 0.474 |
| CC(C)(O)/C=C/C(=O)[C@](C)(O)[C@H]1[C@H](O)C[C@@]2(C)[C@@H]3CC=C4[C@@H](C[C@H](O)C(=O)C4(C)C)[C@]3(C)C(=O)C[C@]12C |  | 0.931 µM and 8.45 µM | 19.9 |  | 0.947 µM and 2.44 µM | 0.408 µM and 0.263 µM | 0.939 µM and 0.362 µM | 0.0828 µM and 0.432 µM |  |  | 1.85 | 0.197 µM and 1.28 µM |  |  | 0.0919 | 0.0736 | 0.187 | 0.218 |  | 0.028 |
| O=C1C2=C(C(=O)c3cnccc31)C1C=CC2CC1 (stereo unspecified) | 9.33 |  | 2.09 | 4.62 | 3.4 µM | 2.85 µM | 3.37 µM | 3.69 µM | 3.5 | 3.74 | 3.57 |  | 0.715 | 1.81 | 2.32 | 1.92 | 1.51 | 1.95 | 1.51 | 2.02 |
| Clc1cccc(N2CCN(CCCN3CCc4c([nH]c5ccccc45)C3c3cccnc3)CC2)c1 (stereo unspecified) | 25.7 | 31.3 µM | 26 | 21.9 |  | 31 µM | 20.2 µM | 20.4 µM |  |  |  |  |  |  | 5.42 |  | 11.5 | 7.08 |  | 5.58 |
| COC(=O)C1C(=O)CC2CCCCC21 (stereo unspecified) | > 100 | > 100 µM |  | > 100 | > 100 µM | > 100 µM | > 100 µM | > 100 µM |  |  |  |  |  |  |  |  |  |  |  |  |
